Test: Stability of JAK3 covalent inhibitors in human whole blood;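 also: parent compound remaining over incubation time quantified by LC-MS/MS as peak area ratio against an internal standard, using pooled K2-EDTA blood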
Type: in vitro ADME
Settings: both sexes, whole blood, 37° C., read-out: Human blood stability t1/2
Excerpt: Stability of JAK3 Covalent Inhibitors in Rat and Human Whole Blood
Rat blood was collected from 3 male Sprague-Dawley rats (200-250 g, Charles River Laboratories) and pooled for each study. Human blood was collected from one male and one female healthy subjects at the Occupational Health & Wellness Center at Pfizer, Groton, CT and pooled for each study. Both rat and human blood was collected freshly into K2-EDTA tubes and kept on ice. An aliquot of the blood was transferred to microtubes and pre-warmed for 10 min at 37° C. using a heat block. […] An aliquot of the incubation mixture was removed at designated time points during the course of the incubation, mixed with an aliquot of acetonitrile containing an internal standard, vortexed and centrifuged. The resulting supernatants were removed and subjected to LC-MS/MS analyses to determine parent compound concentrations. Peak area ratios of the parent compound vs the internal standard were used to determine the % of parent compound remaining vs incubation time.

SMILES | half-life at 1 μM [h]
C=CC(=O)N1CCC(Nc2cnc3[nH]cc(-c4ccnc(C)c4)c3n2)CC1 [Example 201, 1-(4-{[7-(2-methylpyridin-4-yl)-5H-pyrrolo[2,3-b]pyrazin-2-yl]amino}piperidin-1-yl)prop-2-en-1-one] | > 6
C=CC(=O)N1C[C@H](Nc2ncnc3[nH]ccc23)C[C@H](N(C)C)C1 [Example 57, 1-((3R,5S)-3-((7H-Pyrrolo[2,3-d]pyrimidin-4-yl)amino)-5-(dimethylamino)piperidin-1-yl)prop-2-en-1-one] | 1.35
C#Cc1c[nH]c2ncnc(N3CC[C@H]4CCN(C(=O)C=C)C[C@H]43)c12 [Example 48, 1-[(3aS,7aS)-1-(5-ethynyl-7H-pyrrolo[2,3-d]pyrimidin-4-yl)octahydro-6H-pyrrolo[2,3-c]pyridin-6-yl]prop-2-en-1-one] | 2.5
C=CC(=O)N1CCC(Nc2cnc3[nH]cc(C(=O)N[C@H]4CC[C@H](F)C4)c3n2)CC1 [Example 247, 2-[(1-acryloylpiperidin-4-yl)amino]-N-[(1S,3S)-3-fluorocyclopentyl]-5H-pyrrolo[2,3-b]pyrazine-7-carboxamide] | 4.53
C=CC(=O)N1CC[C@H](C)[C@@H](Nc2ncnc3[nH]ccc23)C1 (racemic) [Example 50, 1-[(3R,4S)-4-methyl-3-(7H-pyrrolo[2,3-d]pyrimidin-4-ylamino)piperidin-1-yl]prop-2-en-1-one] | > 6
C=CC(=O)N1CCC[C@@H](Nc2ccnc3[nH]cc(C)c23)C1 [Example 47, 1-{(3R)-3-[(3-methyl-1H-pyrrolo[2,3-b]pyridin-4-yl)amino]piperidin-1-yl}prop-2-en-1-one] | 5.26
C=CC(=O)N1CCC(Oc2cnc3[nH]cc(C(=O)NC(C)(C)C)c3n2)CC1 [Example 338, 2-((1-Acryloylpiperidin-4-yl)oxy)-N-(tert-butyl)-5H-pyrrolo[2,3-b]pyrazine-7-carboxamide] | 5.47
CN(C)C/C=C/C(=O)N1CC[C@@H]2CCN(c3ncnc4[nH]ccc34)[C@@H]2C1 [Example 82, (2E)-4-(dimethylamino)-1-[(3aS,7aS)-1-(7H-pyrrolo[2,3-d]pyrimidin-4-yl)octahydro-6H-pyrrolo[2,3-c]pyridin-6-yl]but-2-en-1-one] | > 6
C=CC(=O)N1C[C@H](Nc2ncnc3[nH]ccc23)C[C@@H](N(C)C)C1 [Example 88, 1-[(3R,5R)-3-(Dimethylamino)-5-(7H-pyrrolo[2,3-d]pyrimidin-4-ylamino)piperidin-1-yl]prop-2-en-1-one] | 1.23
C=CC(=O)N1C[C@H](C)C[C@@H](Nc2ncnc3[nH]ccc23)C1 [Example 74, 1-[(3R,5R)-3-Methyl-5-(7H-pyrrolo[2,3-d]pyrimidin-4-ylamino)piperidin-1-yl]prop-2-en-1-one] | 1.72
C=CC(=O)N1CCC(Nc2cnc3[nH]cc(-c4ccc(F)nc4)c3n2)CC1 [Example 207, 1-(4-{[7-(6-fluoropyridin-3-yl)-5H-pyrrolo[2,3-b]pyrazin-2-yl]amino}piperidin-1-yl)prop-2-en-1-one] | > 6
C=CC(=O)N1CCC[C@@H](Nc2ncnc3[nH]cc(C)c23)C1 [Example 43, 1-{(3R)-3-[(5-methyl-7H-pyrrolo[2,3-d]pyrimidin-4-yl)amino]piperidin-1-yl}prop-2-en-1-one] | 4.57
C=CC(=O)N1CCC[C@@H](Nc2ncnc3[nH]cc(CC)c23)C1 [Example 44, 1-{(3R)-3-[(5-ethyl-7H-pyrrolo[2,3-d]pyrimidin-4-yl)amino]piperidin-1-yl}prop-2-en-1-one] | 2.77
C=CC(=O)N1CC(Nc2ncnc3[nH]ccc23)CCC1CO (stereo not shown) [Example 52, 1-[2-(Hydroxymethyl)-5-(7H-pyrrolo[2,3-d]pyrimidin-4-ylamino)piperidin-1-yl]prop-2-en-1-one] | > 5.97
C=CC(=O)N1CCC(Nc2cnc3[nH]cc(C(=O)NCCC#N)c3n2)CC1 [Example 261, 2-[(1-acryloylpiperidin-4-yl)amino]-N-(2-cyanoethyl)-5H-pyrrolo[2,3-b]pyrazine-7-carboxamide] | > 6
C=CC(=O)N1C[C@@H](C)C[C@@H](Nc2ncnc3[nH]ccc23)C1 (racemic) [Example 22, rac-cis-1-((3R,5S)-3-((7H-Pyrrolo[2,3-d]pyrimidin-4-yl)amino)-5-methylpiperidin-1-yl)prop-2-en-1-one] | 5.78
C=CC(=O)N1CCC(Nc2cnc3[nH]cc(C(=O)N[C@@H](C)CC)c3n2)CC1 [Example 285, 2-[(1-acryloylpiperidin-4-yl)amino]-N-[(2S)-butan-2-yl]-5H-pyrrolo[2,3-b]pyrazine-7-carboxamide] | 5.75
O=C(/C=C/C(F)(F)F)N1CC[C@@H]2CCN(c3ncnc4[nH]ccc34)[C@@H]2C1 [Example 81, (2E)-4,4,4-trifluoro-1-[(3aS,7aS)-1-(7H-pyrrolo[2,3-d]pyrimidin-4-yl)octahydro-6H-pyrrolo[2,3-c]pyridin-6-yl]but-2-en-1-one] | 0.282
C=CC(=O)N1CCC(Nc2cnc3[nH]cc(C(=O)NC4CC(F)C4)c3n2)CC1 (stereo not shown) [Example 243, 2-[(1-acryloylpiperidin-4-yl)amino]-N-(3-fluorocyclobutyl)-5H-pyrrolo[2,3-b]pyrazine-7-carboxamide] | > 6

SMILES | half-life at 1 μM [h]
C=CC(=O)N1C[C@H](Nc2ncnc3[nH]cc(Cl)c23)CC[C@@H]1C [Example 18, 1-((2S,5R)-5-((5-Chloro-7H-pyrrolo[2,3-d]pyrimidin-4-yl)amino)-2-methylpiperidin-1-yl)prop-2-en-1-one] | > 5.31
C=CC(=O)N1C[C@H](Nc2ncnc3[nH]ccc23)C[C@H](OC)C1 [Example 19, 1-((3R,5S)-3-((7H-Pyrrolo[2,3-d]pyrimidin-4-yl)amino)-5-methoxypiperidin-1-yl)prop-2-en-1-one] | 3.51
C=CC(=O)N1CCN(c2cnc3[nH]cc(C(=O)NC(C)C)c3n2)C[C@@H]1CC(C)C [Example 303, 2-[(3S)-4-acryloyl-3-(2-methylpropyl)piperazin-1-yl]-N-(propan-2-yl)-5H -pyrrolo[2,3-b]pyrazine-7-carboxamide] | 5.68
C=CC(=O)N1CCC(Nc2cnc3[nH]cc(C(=O)NC4CCCCC4)c3n2)CC1 [Example 278, 2-[(1-acryloylpiperidin-4-yl)amino]-N-cyclohexyl-5H-pyrrolo[2,3-b]pyrazine-7-carboxamide] | 3.93
C=CC(=O)N1CCN(c2cnc3[nH]cc(C(=O)NC(C)C)c3n2)C[C@@H]1C [Example 295, 2-[(3S)-4-acryloyl-3-methylpiperazin-1-yl]-N-(propan-2-yl)-5H-pyrrolo[2,3-b]pyrazine-7-carboxamide] | 3.15
C=CC(=O)N1CCC(Nc2cnc3[nH]cc(C(=O)NC4CCCC4)c3n2)CC1 [Example 283, 2-[(1-acryloylpiperidin-4-yl)amino]-N-cyclopentyl-5H-pyrrolo[2,3-b]pyrazine-7-carboxamide] | > 6
C=CC(=O)N1CC[C@@H](Nc2cnc3[nH]cc(C(=O)NC(C)(C)C)c3n2)C[C@H]1C [Example 342, 2-(((2R,4R)-1-Acryloyl-2-methylpiperidin-4-yl)amino)-N-(tert-butyl)-5H-pyrrolo[2,3-b]pyrazine-7-carboxamide] | > 6
C=CC(=O)N1C[C@H](F)C[C@@H](Nc2ncnc3[nH]ccc23)C1 [Example 10, 1-((3R,5R)-3-((7H-pyrrolo[2,3-d]pyrimidin-4-yl)amino)-5-fluoropiperidin-1-yl)prop-2-en-1-one] | 2.72
C=CC(=O)N1CCN(c2cnc3[nH]cc(C(=O)NC(C)C)c3n2)CC1 [Example 174, 2-(4-acryloylpiperazin-1-yl)-N-(propan-2-yl)-5H-pyrrolo[2,3-b]pyrazine-7-carboxamide] | 4.16
C=CC(=O)N1CCC[C@@H](Nc2ncnc3[nH]cc(C#N)c23)C1 [Example 45, 4-{[(3R)-1-acryloylpiperidin-3-yl]amino}-7H-pyrrolo[2,3-d]pyrimidine-5-carbonitrile] | > 6
C=CC(=O)N1CCC(Nc2cnc3[nH]cc(C(=O)NC(C)(C)C)c3n2)C[C@@H]1C (mixture of isomers) [Example 340] | > 6
C=CC(=O)N1CCC[C@@H](Nc2ncnc3[nH]cc(-c4ccc(C)nc4)c23)C1 [Example 66, (R)-1-(3-((5-(6-methylpyridin-3-yl)-7H-pyrrolo[2,3-d]pyrimidin-4-yl)amino)piperidin-1-yl)prop-2-en-1-one] | > 6
C=CC(=O)N1CCC(Nc2cnc3[nH]cc(C(=O)NCC(C)CC(F)(F)F)c3n2)CC1 (stereo not shown) [Example 253, 2-[(1-acryloylpiperidin-4-yl)amino]-N-(4,4,4-trifluoro-2-methylbutyl)-5H-pyrrolo[2,3-b]pyrazine-7-carboxamide] | > 6
C=CC(=O)N1CC(Nc2ncnc3[nH]ccc23)CCC1(C)C (stereo not shown) [Example 67, 1-(5-((7H-Pyrrolo[2,3-d]pyrimidin-4-yl)amino)-2,2-dimethylpiperidin-1-yl)prop-2-en-1-one] | > 6
C=CC(=O)N1CCC(Nc2cnc3[nH]cc(C(=O)NCCCC)c3n2)CC1 [Example 269, 2-[(1-acryloylpiperidin-4-yl)amino]-N-butyl-5H-pyrrolo[2,3-b]pyrazine-7-carboxamide] | 4.27
C=CC(=O)N1C[C@@H](F)C[C@@H](Nc2ncnc3[nH]ccc23)C1 [Example 15, 1-((3R,5S)-3-((7H-Pyrrolo[2,3-d]pyrimidin-4-yl)amino)-5-fluoropiperidin-1-yl)prop-2-en-1-one] | 3.87
C=CC(=O)N1CCC[C@@H](Nc2nc(Nc3cccnc3)nc3[nH]ccc23)C1 [Example 63, 1-[(3R)-3-{[2-(Pyridin-3-ylamino)-7H-pyrrolo[2,3-d]pyrimidin-4-yl]amino}piperidin-1-yl]prop-2-en-1-one] | > 6
C=CC(=O)N1CCC(Nc2cnc3[nH]ccc3n2)CC1 [Example 176, 1-[4-(5H-pyrrolo[2,3-b]pyrazin-2-ylamino)piperidin-1-yl]prop-2-en-1-one] | > 6

— patent US9617258B2, “Pyrrolo[2,3-d]pyrimidinyl, pyrrolo[2,3-b]pyrazinyl and pyrrolo[2,3-d]pyridinyl acrylamides” (Pfizer Inc., priority 2013, dated 2017)
